# According to patent US20240117303A1, “METHODS AND COMPOSITIONS FOR GENERATING HUMAN MIDBRAIN DOPAMINERGIC NEURONS FROM NEURAL PROGENITOR CELLS” (Trailhead Biosystems Inc., priority 2022, published 2024):
# Values joined by “and” are separate entries in the source; they are usually repeats but may differ in a detail not shown here. Equal entries are not always repeated. “Also recorded” adds a separate entry of the source.
# B1: BMP7: BMP agonist (protein, UniProt P18075 293-431, looked up)
# Bone morphogenetic protein 7: STGSKQRSQNRSKTPKNQEALRMANVAENSSSDQRQACKKHELYVSFRDLGWQDWIIAPEGYAAYYCEGECAFPLNSYMNATNHAIVQTLVHFINPETVPKPCCAPTQLNAISVLYFDDSSNVILKKYRNMVVRACGCH
# Assays:
# stage 3 immature neurons = assay: HD-DoE 8-factor experiment for stage 4 recipe (FIG. 27, 28, 31); format: cell-based, human; conditions: for impact on expression of NR4A2: 8-factor model / dynamic profile; for expression level of PITX3 in absence of the factor / expression level of NR4A2 in absence of the factor: stage 4 recipe, other factors present; for expression level of PITX3 in absence of the factor: 40 with all factors; for expression level of NR4A2 in absence of the factor: 400 with all factors
# Protocol: To further differentiate the cells to a mature neuronal identity, additional HD-DoE experiments were performed on the cells that were cultured in stage 1, stage 2 and stage 3 differentiation media. After 4 days, gene expression of cells in different combinatorial conditions were investigated. At this time, we focused on maximal expression of more mature dopaminergic genes such as NR4A2, PITX3 and TH (Tiklová et al. (2020) Nat Commun. 11:2434; Fiorenzano et al. (2021) Nat Commun., 12:7302). In one model, cells were treated with a combinatorial matrix with eight inputs including CHIR99021, BDNF, GDNF, Rosiglitazone, GW7647, DBZ and heparin.
# (§1) To assess the impact of elimination of each validated factor identified in Example 5 for the stage 3 and stage 4 recipes, we used dynamic profile analysis and compared the expression level of genes of interest in absence of each finalized factor while others are present.
# In the stage 4 recipe, each of six finalized factors were excluded while other factors were present and the expression levels of NR4A2 and PITX3 were assessed compared to the presence of all factors.
# [1] = tested on: stage 1 neural stem cells; assay: HD-DoE 12-factor experiment for stage 2 recipe (second model, FIG. 8-10, 13); format: cell-based, human; conditions: for impact on GBX2 / impact on expression of FOXA2 / impact on expression of LMX1A: dynamic profile, 12 effectors; for level of FOXA2 in absence of the factor / level of LMX1A in absence of the factor: stage 2 recipe, second experiment model; for level of LMX1A in absence of the factor: 4000 with all factors
# Protocol: To test additional factors like FGF8 that is routinely used in midbrain differentiation protocols, we ran another 12-factor experiment consisting of LDN193189, BMP7, A 83-01, Activin A, Takinib, PD0325901, MK2206, FGF8b, AZD3147, MHY1485, GSI-XX and Yhhu 3792. Similar to the previous experiment, hiPSCs were treated with stage 1 media for 3 days and then treated with 96 conditions of combinations of the factors for an additional 3 days. When this model was optimized for maximum expression of FOXA2, BMP7 with factor contribution of 13.7 and MK2206 with 14.2 had the most impact on its expression followed by AZD 3147 with factor contribution of 10.9.
# (§2) To assess the impact of elimination of each validated factor, we used dynamic profile analysis and compared the expression level of genes of interest in absence of each finalized factor while others are present.
# (§3) In the stage 2 recipe, each of the six finalized factors were removed while the other five factors were present and the expression levels of FOXA2, LMX1A and GBX2 were assessed, compared to the levels in the presence of all factors. According to the first experiment model, the absence of TTNPB lead to a rise of GBX2 expression, while the value of FOXA2 and LMX1A reduced drastically from 10,000 to 0 and 30,000 to 15,000, respectively. The absence of A 83-01 reduced the expression of FOXA2 from 10,000 to 7000, however, as expected, the value of LMX1A increased from 30,000 to 40,000. […] According to the second experiment model, the absence of BMP7 and MK2206 both reduced the level of FOXA2 while increasing the value of LMX1A, with BMP7 as the main effector that led to 0 expression of FOXA2.
# [2] = tested on: human pluripotent stem cells; assay: HD-DoE 13-factor experiment for stage 1 recipe, gene expression modeled after 3-day treatment; dynamic profile and factor criticality analysis; format: cell-based
# Source text: This example utilizes a method of High-Dimensional Design of Experiments (HD-DoE), as previously described in Bukys et al. (2020) Iscience 23:101346. The method employs computerized design geometries to simultaneously test multiple process inputs and offers mathematical modeling of a deep effector/response space. The method allows for finding combinatorial signaling inputs that control a complex process, such as during cell differentiation. It allows testing of multiple plausible critical process parameters, as such parameters impact output responses, such as gene expression. Because gene expression provides hallmark features of the phenotype of, for example, a human cell, the method can be applied to identify, and understand, which signaling pathways control cell fate. In the current example, the HD-DOE method was applied with the intent to find conditions for induction of midbrain neural progenitor-expressed genes, directly from the pluripotent stem cell state.
# To develop the recipe for each stage, the impact of agonists and antagonists of multiple signaling pathways (referred to herein as “effectors”) on the expression of two sets of 53 pre-selected genes after a 3-day treatment was tested and modeled. These effectors are small molecules or proteins that are commonly used during stepwise differentiation of stem cells to specific fates. The choice of the effectors to test was based on current literature on neural induction in the midbrain region of the developing brain and differentiation of stem cells to neural progenitors.
# To test the effectors, experiments with at least 8 factors were designed that can assess the response of cells to 48 or more different combinations of effectors in a range of concentrations. To analyze the models, we focused on expression of genes expressed in the midbrain region, including OTX2, DMBX1, FOXA2, LMX1A, and on the absence of GBX2, which is a hindbrain marker. The impact of each effector on gene expression level is defined by a parameter called factor contribution that is calculated for each effector during the modeling.
# To identify the recipe of stage 1 of differentiation, cells were treated with various effectors for 3 days and the gene expression of cells was modeled. […] This model consisted of 13 factors including LDN193189, PD173074, BLU9931, Purmorphamine, SC79, MK2206, ZM336372, PD0325901, CHIR99021, XAV939, UCLA-gp130, Tofacitinib and GO 6983.
# as §2
# In the stage 1 recipe, each of the five finalized factors were removed while the other four factors were present and the expression levels of OTX2, DMBX1, FOXA2 and LMX1A was assessed compared to the levels in the presence of all five factors (FIG. 11A-B). […] Expression level of DMBX1 increased in absence of LDN193189, however values of OTX2, FOXA2 and LMX1A decreased.
# [3] = tested on: stage 1 neural stem cells; assay: HD-DoE 12-factor experiment for stage 2 recipe (first model, FIG. 5-7, 12); format: cell-based, human; conditions: dynamic profile / model, 12 effectors
# Source text: To further guide the differentiation of midbrain-committed neural stem cells to neural progenitor cells at stage 2, we performed an additional HD-DoE experiment. We thereby obtained additional gene regulatory models that were used for preparation of differentiation protocol. The basis of this was a 12-factor HD-DoE experiment with focus on initiation of differentiation of cells toward midbrain neural progenitor cells for an additional 3 days after termination of stage 1 treatment. Here, we focused on expression of LMX1A and FOXA2 in neural progenitor cells with low to zero expression of GBX2. LMX1A had significant high expression level in the model with value of 47888. Therefore, we used optimization setting for this gene to identify the positive factors. The factors in this experiment included SC79, MK2206, ZM336372, PD0325901, CHIR99021, A 83-01, TTNPB, AGN193109, GW3965, SR9243, Purmorphamine and GSI-XX.
# as §2, §3
# [4] = tested on: stage 2 neural progenitors; assay: HD-DoE 12-factor model for stage 3 recipe (FIG. 19-23, 29); format: cell-based, human
# Source text: To develop the neuronal differentiation recipes, the impact of various agonist and antagonists (effectors) on maturation of MB neural progenitors was investigated using the HD-DoE method described in Example 1. These effectors were chosen based on available literature on developmental biology, differentiation of stem cells as well as mouse and human single cell RNA-seq data from midbrain neurons at the time.
# To engineer the recipe of stage 3 of differentiation, cells were first cultured in the stage 1 and stage 2 media as described herein, then they were treated with combinations of 8 or 12 factors for 3 days and the gene expression of cells in each condition was modeled. To guide the cells towards a subtype of midbrain dopaminergic neurons that reside in Substantia Nigra pars compacta (SNc) region of the brain, neural progenitors need to be SOX6^+ (Pereira et al. (2021) Cell Rep. 37:109975 Oosterveen et al. (2021) Stem Cell Reports 16:2718-2735 Poulin et al. (2020) Trends Neurosci. 43:155-169). CORIN, NGN2 and MSX1 are other markers involved in neurogenesis of dopaminergic neurons originating from floorplate region of developing midbrain (Wang et al. (2020) Cells 9:1489; Samata et al. (2016) Nat Commun. 7:13097; Ono et al. (2007) Development 134:3213-3225; Prakash et al. (2006) J. Physiol. 575:403410).
# Therefore, we focused on maximizing expression of SOX6, CORIN, NGN2 and MSX1 in modeling experiments. One of the 12-factor models, the results of which are shown in FIG. 19, including LDN193189, AGN193109, BMP7, TTNPB, PD0325901, A8301, MHY1485, CHIR99021, XAV939, SANT-1, Purmorphamine and MK2206, provided a combination set that could maximize expression level of CORIN to more than 2000.
# as §1
# In the stage 3 recipe, each of the finalized factors were removed in their respective models while other factors were present and the expression level of genes of interest was assessed compared to presence of all factors. When AGN193109 was excluded, level of all CORIN, KCNJ6, MSX1 and SOX6 decreased from 900 to 450, 50 to 35, 140 to 110 and 105 to 60, respectively. […] When PD0325901 was removed, expression levels of CORIN and KCNJ6 increased to 1200 and 70 while levels of MSX1 and SOX6 decreased to 105 and 20. In the absence of CHIR99021, the expression level of CORIN was again increased to 1200 while the level of KCNJ6 and MSX1 dropped to 50 and 115. […] Therefore, it was decided to include this compound in the final recipe. […] Therefore, CHIR99021 was also included in the final recipe.
# [5] = model optimized for maximum expression of FOXA2, positive impact
molecule,measurement,setting,value
NCCc1ccc(O)c(O)c1 [Dopamine],impact on expression of NR4A2,stage 3 immature neurons,positive regulatory impact
same,expression level of PITX3 in absence of the factor,stage 3 immature neurons,20
same,expression level of NR4A2 in absence of the factor,stage 3 immature neurons,~0
CC(C)(Sc1ccc(CCN(CCCCC2CCCCC2)C(=O)NC2CCCCC2)cc1)C(=O)O [GW7647],impact on expression of NR4A2,stage 3 immature neurons,positive regulatory impact
same,expression level of PITX3 in absence of the factor,stage 3 immature neurons,lower expression levels
same,expression level of NR4A2 in absence of the factor,stage 3 immature neurons,lower expression levels
NC1(c2ccc(-c3nc4ccn5c(=O)[nH]nc5c4cc3-c3ccccc3)cc2)CCC1 [MK2206],impact on GBX2,[1],desirable impact
same,impact on expression of FOXA2,[1],desirable impact; also recorded: positive impact
same,impact on expression of LMX1A,[1],decreases
same,factor contribution,[1]; [5],14.2
same,factor contribution,"[1]; model optimized for maximum expression of LMX1A, positive impact",12
same,level of FOXA2 in absence of the factor,[1],reduced
same,level of LMX1A in absence of the factor,[1],increasing
same,impact on expression of OTX2,"[2]; dynamic profile, 13 effectors",positive impact
same,factor contribution,"[2]; model optimized for maximum expression of OTX2, positive impact, 3-day treatment",22.3
same,expression level of LMX1A in absence of the factor,"[2]; stage 1 recipe, other four factors present, 300 with all five factors",stayed the same
same,expression level of FOXA2 in absence of the factor,"[2]; stage 1 recipe, other four factors present, 600 with all five factors",stayed the same
same,expression level of DMBX1 in absence of the factor,"[2]; stage 1 recipe, other four factors present, 3000 with all five factors",1500
same,expression level of OTX2 in absence of the factor,"[2]; stage 1 recipe, other four factors present, 12000 with all five factors",9500
same,impact on expression of FOXA2,[3],positive impact
CN(CCOc1ccc(CC2SC(=O)NC2=O)cc1)c1ccccn1 (stereo not drawn) [Rosiglitazone],factor contribution,"stage 3 immature neurons; model maximized for NR4A2, negative impact",13.6
COc1cccc(Oc2cccc3nc(Nc4ccc(C(C)C)cc4)nc(N)c23)c1 [Yhhu 3792],impact on GBX2,[1],positive effect
same,impact on expression of LMX1A,[1],considerable negative effect
same,factor contribution,"[1]; model optimized for LMX1A, negative impact",11.7
heparin,impact on expression of NR4A2,stage 3 immature neurons,positive regulatory impact
same,expression level of PITX3 in absence of the factor,stage 3 immature neurons,30
same,expression level of NR4A2 in absence of the factor,stage 3 immature neurons,did not significantly change
B1,impact on expression of FOXA2,[1],significant positive impact
same,impact on expression of LMX1A,[1],did not reduce
same,factor contribution,[1]; [5],13.7
same,level of FOXA2 in absence of the factor,[1],0
same,level of LMX1A in absence of the factor,[1],increasing
same,factor contribution,"[4]; model maximizing expression of CORIN, positive regulatory impact",high positive factor contributions
same,factor contribution,"[4]; model optimized for maximum expression of KCNJ6, positive regulators",low factor contributions
same,factor contribution,"[4]; model optimized for maximum expression of MSX1, positive impact",11.1 and 11.06
same,expression level of KCNJ6 in absence of the factor,"[4]; stage 3 recipe, other factors present, 50 with all factors",did not have a significant change
same,expression level of SOX6 in absence of the factor,"[4]; stage 3 recipe, other factors present, 105 with all factors",did not have a significant change
same,expression level of MSX1 in absence of the factor,"[4]; stage 3 recipe, other factors present, 140 with all factors",100
same,expression level of CORIN in absence of the factor,"[4]; stage 3 recipe, other factors present, 900 with all factors",500
